These compounds were tested on HIV-IIIb (assay: Test A: Antiviral Assays in MT4 Cells). Conditions: Human immunodeficiency virus 1, IIIB, MT4, 120 h, MT-4 cells infected with HIV-IIIb (0.004 m.o.i.), 5 days of incubation, CellTiter-Glo chemiluminescence readout; read-out: EC50.
Type: cell-based
Procedure, shortened: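 MT-4 cells pre-infected with HIV-IIIb (0.004 m.o.i.) at 37 °C, then plated with 3-fold serially diluted compound (10 concentrations, quadruplicate, RPMI 1640/10% FBS). After 5 days at 37 °C, cell viability read by CellTiter-Glo chemiluminescence; mock-infected cells run in parallel.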
For `Cc1cc2ccc(-c3ccc(Cl)cc3)cc2c(-c2ccc(Cl)cc2)c1C(OC(C)(C)C)C(=O)O` (stereo not shown) [Compound 70, 2-(1,7-Bis(4-chlorophenyl)-3-methylnaphthalen-2-yl)-2-tert-butoxyacetic acid], the EC50 was 8800 nM.
For `Cc1cc2ccc(Br)cc2c(-c2ccc(Cl)cc2)c1C(OC(C)(C)C)C(=O)O` (stereo not shown) [Compound 71, 2-(7-Bromo-1-(4-chlorophenyl)-3-methylnaphthalen-2-yl)-2-tert-butoxyacetic acid], the EC50 was 35000 nM.
Compound `Cc1cc2ccc(C#CC(C)(C)C)cc2c(-c2ccc(Cl)cc2)c1C(OC(C)(C)C)C(=O)O` (stereo not shown) [Compound 72, 2-tert-Butoxy-2-(1-(4-chlorophenyl)-7-(3,3-dimethylbut-1-ynyl)-3-methylnaphthalen-2-yl)acetic acid] has an EC50 of 2000 nM.
In the case of `Cc1cc2ccc(C#CC3(O)CCCC3)cc2c(-c2ccc(Cl)cc2)c1C(OC(C)(C)C)C(=O)O` (stereo not shown) [Compound 73, 2-tert-butoxy-2-(1-(4-chlorophenyl)-7-((1-hydroxycyclopentyl)ethynyl)-3-methylnaphthalen-2-yl)acetic acid], the EC50 is reported as 130 nM.
`Cc1cc2ccc(C#CC3CCCC3)cc2c(-c2ccc(Cl)cc2)c1C(OC(C)(C)C)C(=O)O` (stereo not shown) [Compound 74, 2-tert-Butoxy-2-(1-(4-chlorophenyl)-7-(cyclopentylethynyl)-3-methylnaphthalen-2-yl)acetic acid] gave an EC50 of 1200 nM.
`Cc1cc2ccc(C#CC3CC3)cc2c(-c2ccc(Cl)cc2)c1C(OC(C)(C)C)C(=O)O` (stereo not shown) [Compound 75, 2-tert-Butoxy-2-(1-(4-chlorophenyl)-7-(cyclopropylethynyl)-3-methylnaphthalen-2-yl)acetic acid] gave an EC50 of 980 nM.
In the case of `C=Cc1ccc2cc(C)c(C(OC(C)(C)C)C(=O)O)c(-c3ccc(Cl)cc3)c2c1` (stereo not shown) [Compound 76, 2-tert-Butoxy-2-(1-(4-chlorophenyl)-3-methyl-7-vinylnaphthalen-2-yl)acetic acid], the EC50 is reported as 930 nM.
`CC(C)=Cc1ccc2cc(C)c(C(OC(C)(C)C)C(=O)O)c(-c3ccc(Cl)cc3)c2c1` (stereo not shown) [Compound 77, 2-tert-butoxy-2-(1-(4-chlorophenyl)-3-methyl-7-(2-methylprop-1-enyl)naphthalen-2-yl)acetic acid] was tested, and the EC50 was 8900 nM.
Compound `Cc1ccc2cc(C)c(C(OC(C)(C)C)C(=O)O)c(-c3ccc(Cl)cc3)c2c1` (stereo not shown) [Compound 78, 2-tert-Butoxy-2-(1-(4-chlorophenyl)-3,7-dimethylnaphthalen-2-yl)acetic acid] has an EC50 of 300 nM.
For `Cc1cc2ccc(C#CC3(O)CCN(C)CC3)cc2c(-c2ccc(Cl)cc2)c1C(OC(C)(C)C)C(=O)O` (stereo not shown) [Compound 79, 2-tert-Butoxy-2-(1-(4-chlorophenyl)-7-((4-hydroxy-1-methylpiperidin-4-yl)ethynyl)-3-methylnaphthalen-2-yl)acetic acid], the EC50 was 89 nM.
`Cc1cc2ccc(C#CC3(O)CCOCC3)cc2c(-c2ccc(Cl)cc2)c1C(OC(C)(C)C)C(=O)O` (stereo not shown) [Compound 80, 2-tert-Butoxy-2-(1-(4-chlorophenyl)-7-((4-hydroxytetrahydro-2H-pyran-4-yl)ethynyl)-3-methylnaphthalen-2-yl)acetic acid] was tested, and the EC50 was 51 nM.
`Cc1cc2ccc(C#Cc3cncn3C)cc2c(-c2ccc(Cl)cc2)c1C(OC(C)(C)C)C(=O)O` (stereo not shown) [Compound 81, 2-tert-Butoxy-2-(1-(4-chlorophenyl)-3-methyl-7-((1-methyl-1H-imidazol-5-yl)ethynyl)naphthalen-2-yl)acetic acid] gave an EC50 of 150 nM.
`CCC(O)(C#Cc1ccc2cc(C)c(C(OC(C)(C)C)C(=O)O)c(-c3ccc(Cl)cc3)c2c1)CC` (stereo not shown) [Compound 82, 2-tert-Butoxy-2-(1-(4-chlorophenyl)-7-(3-ethyl-3-hydroxypent-1-ynyl)-3-methylnaphthalen-2-yl)acetic acid] gave an EC50 of 58 nM.
With `Cc1cc2ccc(C#CC3(O)CCCCC3)cc2c(-c2ccc(Cl)cc2)c1C(OC(C)(C)C)C(=O)O` (stereo not shown) [Compound 83, 2-tert-Butoxy-2-(1-(4-chlorophenyl)-7-((1-hydroxycyclohexyl)ethynyl)-3-methylnaphthalen-2-yl)acetic acid] the EC50 was 78 nM.
Compound `Cc1cc2ccc(C#CC3(N)CCCCC3)cc2c(-c2ccc(Cl)cc2)c1C(OC(C)(C)C)C(=O)O` (stereo not shown) [Compound 84, 2-(7-((1-Aminocyclohexyl)ethynyl)-1-(4-chlorophenyl)-3-methylnaphthalen-2-yl)-2-tert-butoxyacetic acid] has an EC50 of 14 nM.
`Cc1cc2ccc(C#CC(C)(C)N)cc2c(-c2ccc(Cl)cc2)c1C(OC(C)(C)C)C(=O)O` (stereo not shown) [Compound 85, 2-(7-(3-Amino-3-methylbut-1-ynyl)-1-(4-chlorophenyl)-3-methylnaphthalen-2-yl)-2-tert-butoxyacetic acid] gave an EC50 of 18 nM.
`Cc1cc2ccc(C#CC(C)(C)N)cc2c(-c2ccc3c4c(ccnc24)CCO3)c1C(OC(C)(C)C)C(=O)O` [Compound 86, (S)-2-((R)-7-(3-Amino-3-methylbut-1-ynyl)-1-(2,3-dihydropyrano[4,3,2-de]quinolin-7-yl)-3-methylnaphthalen-2-yl)-2-tert-butoxyacetic acid] gave an EC50 of 980 nM.
For `Cc1cc2ccc(C#CC(C)(C)N)cc2c(-c2ccc3c(c2)CCCO3)c1C(OC(C)(C)C)C(=O)O` (stereo not shown) [Compound 87, 2-(7-(3-Amino-3-methylbut-1-ynyl)-1-(chroman-6-yl)-3-methylnaphthalen-2-yl)-2-tert-butoxyacetic acid], the EC50 was 72 nM.
`Cc1cc2ccc(C#CC(C)(O)c3ccccc3)cc2c(-c2ccc(Cl)cc2)c1C(OC(C)(C)C)C(=O)O` (stereo not shown) [Compound 88, 2-tert-Butoxy-2-(1-(4-chlorophenyl)-7-(3-hydroxy-3-phenylbut-1-ynyl)-3-methylnaphthalen-2-yl)acetic acid] showed an EC50 of 24 nM.
`Cc1cc2ccc(CCC(C)(C)O)cc2c(-c2ccc(Cl)cc2)c1C(OC(C)(C)C)C(=O)O` (stereo not shown) [Compound 89, 2-tert-Butoxy-2-(1-(4-chlorophenyl)-7-(3-hydroxy-3-methylbutyl)-3-methylnaphthalen-2-yl)acetic acid] showed an EC50 of 280 nM.
Work on `Cc1cc2ccc(CCC3CCCC3)cc2c(-c2ccc(Cl)cc2)c1C(OC(C)(C)C)C(=O)O` (stereo not shown) [Compound 90, 2-tert-Butoxy-2-(1-(4-chlorophenyl)-7-(2-cyclopentylethyl)-3-methylnaphthalen-2-yl)acetic acid] yielded an EC50 of 31000 nM.
For `Cc1cc2ccc(CCC3(O)CCCC3)cc2c(-c2ccc(Cl)cc2)c1C(OC(C)(C)C)C(=O)O` (stereo not shown) [Compound 91, 2-tert-butoxy-2-(1-(4-chlorophenyl)-7-(2-(1-hydroxycyclopentyl)ethyl)-3-methylnaphthalen-2-yl)acetic acid], the EC50 was 250 nM.
For `Cc1cc2ccc(CCC3CC3)cc2c(-c2ccc(Cl)cc2)c1C(OC(C)(C)C)C(=O)O` (stereo not shown) [Compound 92, 2-tert-Butoxy-2-(1-(4-chlorophenyl)-7-(2-cyclopropylethyl)-3-methylnaphthalen-2-yl)acetic acid], the EC50 was 7100 nM.
`CCc1ccc2cc(C)c(C(OC(C)(C)C)C(=O)O)c(-c3ccc(Cl)cc3)c2c1` (stereo not shown) [Compound 93, 2-tert-Butoxy-2-(1-(4-chlorophenyl)-7-ethyl-3-methylnaphthalen-2-yl)acetic acid] gave an EC50 of 86 nM.
Work on `Cc1cc2ccc(CC(C)C)cc2c(-c2ccc(Cl)cc2)c1C(OC(C)(C)C)C(=O)O` (stereo not shown) [Compound 94, 2-tert-Butoxy-2-(1-(4-chlorophenyl)-7-isobutyl-3-methylnaphthalen-2-yl)acetic acid] yielded an EC50 of 12000 nM.
